# Laboratory results published in US8343979B2, “Use of alkanoyl L-carnitine for the treatment of erectile dysfunction” (Sigma-Tau Industrie Farmaceutiche Riunite S.p.A., priority 2001, dated 2013).
# What was measured:
# [1] = tested on: erectile dysfunction, diabetics or nondiabetics patients; test: preliminary experimental data on propionyl L-carnitine in erectile dysfunction; assay type: in vivo, human; conditions: not previously treated with sildenafil
# [2] = tested on: diabetics patients suffering from E.D.; test: clinical trial of propionyl L-carnitine plus sildenafil in sildenafil non-responders (dynamic colour Doppler ultrasonography, IIEF); assay type: in vivo, human; conditions: 2 g/day propionyl L-carnitine orally daily in combination with 50 mg sildenafil orally twice a week; diabetic E.D. patients not responder to sildenafil alone; after 3 and 6 months
# Experimental: In this trial, 24 diabetics patients suffering from E.D. which were not responder to the treatment with sildenafil alone were enrolled.
# 2 g/day (1 g tablet twice a day) of propionyl L-carnitine were orally administered daily to the patients, and 50 mg sildenafil orally, twice a week.
# In this trial, 30 diabetics patients suffering from E.D. which were not responder to the treatment with sildenafil alone were enrolled.
# 2 g/day (1 g tablet twice a day) of propionyl L-carnitine, were orally administered daily to the patients, and 50 mg sildenafil orally, twice a week.
smiles,measurement,setting,value
CCC(=O)O[C@H](CC(=O)[O-])C[N+](C)(C)C [propionyl L-carnitine],usefulness for treating the erectile dysfunction,[1],useful for treating the erectile dysfunction
same,arterial flux by dynamic colour Doppler ultrasonography,[2],improvement of the arterial flux
same,"satisfactory clinical response evaluated with IIEF, share of treated patients",[2],60%
